Columns and labels:
Details in all cases: Compound concentration 10 µM
[1] = biological target: 5-hydroxytryptamine receptor 7 (Homo sapiens) (UniProt P34969)
[2] = biological target: Histamine H4 receptor (Homo sapiens) (UniProt Q9H3N8)
[3] = biological target: T1, Alpha-2C adrenergic receptor (Homo sapiens) (UniProt P18825)
T1 sequence (whole entry): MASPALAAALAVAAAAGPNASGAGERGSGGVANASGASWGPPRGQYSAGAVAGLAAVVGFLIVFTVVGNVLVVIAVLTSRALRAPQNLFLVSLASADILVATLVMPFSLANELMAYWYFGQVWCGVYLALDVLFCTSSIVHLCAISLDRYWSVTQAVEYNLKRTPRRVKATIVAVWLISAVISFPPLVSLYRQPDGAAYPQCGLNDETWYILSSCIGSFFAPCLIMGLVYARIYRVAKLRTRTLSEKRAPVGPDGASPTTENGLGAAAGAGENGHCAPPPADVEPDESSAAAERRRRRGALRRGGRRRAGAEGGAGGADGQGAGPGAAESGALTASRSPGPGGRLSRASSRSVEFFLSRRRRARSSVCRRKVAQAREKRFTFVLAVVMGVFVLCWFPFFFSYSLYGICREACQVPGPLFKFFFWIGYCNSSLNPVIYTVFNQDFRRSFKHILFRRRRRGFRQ

[4] = biological target: T2, D(4) dopamine receptor (Homo sapiens) (UniProt P21917)
T2 sequence (whole entry): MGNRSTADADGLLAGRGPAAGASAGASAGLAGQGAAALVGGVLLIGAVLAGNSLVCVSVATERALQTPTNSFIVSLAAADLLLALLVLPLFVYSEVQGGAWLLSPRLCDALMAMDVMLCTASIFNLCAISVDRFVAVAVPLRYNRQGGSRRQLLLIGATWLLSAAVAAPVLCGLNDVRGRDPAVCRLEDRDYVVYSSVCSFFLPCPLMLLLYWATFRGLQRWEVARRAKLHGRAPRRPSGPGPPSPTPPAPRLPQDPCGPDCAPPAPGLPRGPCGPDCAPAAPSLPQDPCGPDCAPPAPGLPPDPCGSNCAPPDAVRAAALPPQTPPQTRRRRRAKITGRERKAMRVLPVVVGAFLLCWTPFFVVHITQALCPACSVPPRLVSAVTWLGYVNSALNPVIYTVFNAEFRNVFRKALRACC

[5] = biological target: 5-hydroxytryptamine receptor 6 (Homo sapiens) (UniProt P50406)
Sequence of 5-hydroxytryptamine receptor 6 (Homo sapiens) (P50406 whole entry): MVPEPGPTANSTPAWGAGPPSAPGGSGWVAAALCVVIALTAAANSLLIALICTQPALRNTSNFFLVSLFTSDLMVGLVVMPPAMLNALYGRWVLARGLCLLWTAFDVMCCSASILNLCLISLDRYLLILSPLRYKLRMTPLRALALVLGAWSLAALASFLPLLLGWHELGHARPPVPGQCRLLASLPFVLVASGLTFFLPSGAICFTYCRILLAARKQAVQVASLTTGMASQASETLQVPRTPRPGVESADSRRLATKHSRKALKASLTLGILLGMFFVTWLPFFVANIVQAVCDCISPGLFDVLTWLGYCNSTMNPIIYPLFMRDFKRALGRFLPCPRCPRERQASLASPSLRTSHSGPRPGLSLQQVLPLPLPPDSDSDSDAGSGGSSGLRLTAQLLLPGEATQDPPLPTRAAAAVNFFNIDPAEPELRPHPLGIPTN

[6] = biological target: T3, 5-hydroxytryptamine receptor 2C (Homo sapiens) (UniProt P28335)
T3 sequence (whole entry): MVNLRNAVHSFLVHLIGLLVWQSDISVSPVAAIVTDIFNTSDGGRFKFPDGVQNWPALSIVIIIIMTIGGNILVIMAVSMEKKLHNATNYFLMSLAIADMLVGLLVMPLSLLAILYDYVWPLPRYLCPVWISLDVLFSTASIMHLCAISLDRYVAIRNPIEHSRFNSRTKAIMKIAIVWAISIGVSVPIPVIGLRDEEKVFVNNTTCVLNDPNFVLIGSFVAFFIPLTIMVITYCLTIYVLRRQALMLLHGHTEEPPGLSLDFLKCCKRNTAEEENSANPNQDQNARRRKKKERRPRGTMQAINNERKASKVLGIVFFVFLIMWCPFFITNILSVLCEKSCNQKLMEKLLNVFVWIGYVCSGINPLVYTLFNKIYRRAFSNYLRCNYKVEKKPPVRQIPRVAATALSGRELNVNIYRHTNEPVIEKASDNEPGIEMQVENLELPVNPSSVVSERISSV

[7] = biological target: 5-hydroxytryptamine receptor 5A (Homo sapiens) (UniProt P47898)
Sequence of 5-hydroxytryptamine receptor 5A (Homo sapiens) (P47898 whole entry): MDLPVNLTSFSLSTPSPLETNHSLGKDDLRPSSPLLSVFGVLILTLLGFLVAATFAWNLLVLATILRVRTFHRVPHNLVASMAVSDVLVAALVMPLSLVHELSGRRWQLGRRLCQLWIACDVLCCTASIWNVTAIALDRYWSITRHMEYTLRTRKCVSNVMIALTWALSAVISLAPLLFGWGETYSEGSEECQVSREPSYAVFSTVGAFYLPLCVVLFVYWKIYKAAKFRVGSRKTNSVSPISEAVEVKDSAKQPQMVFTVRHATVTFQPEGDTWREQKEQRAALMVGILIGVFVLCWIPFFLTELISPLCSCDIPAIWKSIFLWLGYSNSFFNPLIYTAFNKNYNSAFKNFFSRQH

[8] = biological target: T4, Muscarinic acetylcholine receptor M1 (Homo sapiens) (UniProt P11229)
T4 sequence (whole entry): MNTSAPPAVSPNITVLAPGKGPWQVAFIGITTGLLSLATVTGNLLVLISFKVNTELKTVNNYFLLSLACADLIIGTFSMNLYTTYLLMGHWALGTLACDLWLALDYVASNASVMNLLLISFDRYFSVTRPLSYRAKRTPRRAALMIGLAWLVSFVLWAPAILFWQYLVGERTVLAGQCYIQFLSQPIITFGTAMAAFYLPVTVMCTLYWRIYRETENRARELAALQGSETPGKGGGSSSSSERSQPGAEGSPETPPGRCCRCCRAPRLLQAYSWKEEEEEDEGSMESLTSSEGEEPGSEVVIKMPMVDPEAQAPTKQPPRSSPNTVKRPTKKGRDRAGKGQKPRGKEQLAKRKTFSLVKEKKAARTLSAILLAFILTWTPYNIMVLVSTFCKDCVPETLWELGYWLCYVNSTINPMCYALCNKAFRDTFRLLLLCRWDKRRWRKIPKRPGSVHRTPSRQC

[9] = biological target: Sigma intracellular receptor 2 (Homo sapiens) (UniProt Q5BJF2)
Sequence of Sigma intracellular receptor 2 (Homo sapiens) (Q5BJF2 whole entry): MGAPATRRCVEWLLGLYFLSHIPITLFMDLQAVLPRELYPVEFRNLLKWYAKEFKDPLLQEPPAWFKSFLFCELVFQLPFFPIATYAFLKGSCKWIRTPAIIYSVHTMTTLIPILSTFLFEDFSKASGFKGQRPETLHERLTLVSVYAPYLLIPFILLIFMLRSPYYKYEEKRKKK

[10] = biological target: 5-hydroxytryptamine receptor 2A (Homo sapiens) (UniProt P28223)
Sequence of 5-hydroxytryptamine receptor 2A (Homo sapiens) (P28223 whole entry): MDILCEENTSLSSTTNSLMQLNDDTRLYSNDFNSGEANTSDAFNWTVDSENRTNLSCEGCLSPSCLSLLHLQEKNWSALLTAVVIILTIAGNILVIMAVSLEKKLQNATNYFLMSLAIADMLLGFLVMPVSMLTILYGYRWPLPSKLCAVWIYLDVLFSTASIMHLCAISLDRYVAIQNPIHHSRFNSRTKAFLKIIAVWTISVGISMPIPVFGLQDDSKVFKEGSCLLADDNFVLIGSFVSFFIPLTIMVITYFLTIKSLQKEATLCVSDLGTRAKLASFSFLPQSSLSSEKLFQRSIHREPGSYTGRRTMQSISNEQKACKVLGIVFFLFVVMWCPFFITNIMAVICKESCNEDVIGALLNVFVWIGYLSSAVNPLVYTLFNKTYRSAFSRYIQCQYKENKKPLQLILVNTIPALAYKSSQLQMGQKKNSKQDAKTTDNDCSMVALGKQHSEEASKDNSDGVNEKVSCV

[11] = biological target: Beta-2 adrenergic receptor (Homo sapiens) (UniProt P07550)
Sequence of Beta-2 adrenergic receptor (Homo sapiens) (P07550 whole entry, looked up): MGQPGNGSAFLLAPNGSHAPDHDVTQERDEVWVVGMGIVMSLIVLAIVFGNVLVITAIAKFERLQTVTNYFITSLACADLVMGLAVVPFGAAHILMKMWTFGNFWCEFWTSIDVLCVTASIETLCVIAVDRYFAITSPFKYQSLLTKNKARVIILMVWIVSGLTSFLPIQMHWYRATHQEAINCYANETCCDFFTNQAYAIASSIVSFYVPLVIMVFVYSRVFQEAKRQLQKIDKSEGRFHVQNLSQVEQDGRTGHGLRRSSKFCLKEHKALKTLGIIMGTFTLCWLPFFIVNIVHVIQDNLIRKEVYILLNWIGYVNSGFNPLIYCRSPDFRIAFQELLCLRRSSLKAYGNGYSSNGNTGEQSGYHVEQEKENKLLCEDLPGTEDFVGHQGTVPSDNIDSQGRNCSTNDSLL

[12] = biological target: T5, 5-hydroxytryptamine receptor 3A (Homo sapiens) (UniProt P46098)
T5 sequence (whole entry): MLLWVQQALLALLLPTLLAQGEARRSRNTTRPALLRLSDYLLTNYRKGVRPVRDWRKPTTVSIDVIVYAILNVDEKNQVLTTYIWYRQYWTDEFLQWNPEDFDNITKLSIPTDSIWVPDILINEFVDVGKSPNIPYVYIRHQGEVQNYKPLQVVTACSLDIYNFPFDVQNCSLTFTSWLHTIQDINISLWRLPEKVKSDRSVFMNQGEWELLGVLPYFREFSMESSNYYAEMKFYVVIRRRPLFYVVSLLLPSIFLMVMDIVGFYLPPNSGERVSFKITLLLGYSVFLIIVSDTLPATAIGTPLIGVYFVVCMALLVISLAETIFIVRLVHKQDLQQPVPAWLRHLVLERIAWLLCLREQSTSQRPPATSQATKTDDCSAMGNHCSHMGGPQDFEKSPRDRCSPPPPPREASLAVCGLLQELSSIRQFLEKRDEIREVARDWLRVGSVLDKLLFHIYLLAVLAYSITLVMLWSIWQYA

Sequence of Histamine H4 receptor (Homo sapiens) (Q9H3N8 whole entry): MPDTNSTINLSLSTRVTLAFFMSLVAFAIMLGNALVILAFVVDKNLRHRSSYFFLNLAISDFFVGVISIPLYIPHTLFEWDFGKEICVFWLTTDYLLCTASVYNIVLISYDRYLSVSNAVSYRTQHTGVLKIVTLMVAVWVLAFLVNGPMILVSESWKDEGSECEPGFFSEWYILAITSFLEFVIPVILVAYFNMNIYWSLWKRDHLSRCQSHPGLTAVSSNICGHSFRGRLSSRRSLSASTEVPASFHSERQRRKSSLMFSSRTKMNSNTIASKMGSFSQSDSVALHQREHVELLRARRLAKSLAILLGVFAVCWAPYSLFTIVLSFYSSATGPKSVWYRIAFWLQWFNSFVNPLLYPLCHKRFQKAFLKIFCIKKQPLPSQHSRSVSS
Sequence of 5-hydroxytryptamine receptor 7 (Homo sapiens) (P34969 whole entry): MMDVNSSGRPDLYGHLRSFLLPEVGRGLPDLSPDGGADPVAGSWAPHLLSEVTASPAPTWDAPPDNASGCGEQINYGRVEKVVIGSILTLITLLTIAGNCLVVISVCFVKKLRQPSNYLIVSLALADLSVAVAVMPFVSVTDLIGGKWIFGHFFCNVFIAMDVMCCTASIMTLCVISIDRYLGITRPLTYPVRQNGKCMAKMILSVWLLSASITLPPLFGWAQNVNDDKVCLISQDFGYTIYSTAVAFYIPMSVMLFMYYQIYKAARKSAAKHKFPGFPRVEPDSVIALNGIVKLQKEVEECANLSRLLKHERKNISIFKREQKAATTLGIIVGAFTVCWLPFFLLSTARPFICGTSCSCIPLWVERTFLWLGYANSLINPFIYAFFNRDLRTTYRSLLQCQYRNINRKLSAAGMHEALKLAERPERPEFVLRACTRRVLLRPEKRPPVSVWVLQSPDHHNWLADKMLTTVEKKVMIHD

## Cc1csc(NC(=O)c2cc(F)cc(Oc3cncnc3)c2)n1
[1]
  inhibition: 15.3%
[2]
  inhibition: 0.79%
[3]
  inhibition: 6.42%
[4]
  inhibition: 23.6%
[5]
  inhibition: 7.85%
[6]
  inhibition: 0.59%
[7]
  inhibition: -6.54%
[8]
  inhibition: -0.94%
[9]
  inhibition: 41.8%
[10]
  inhibition: 1.92%
[11]
  inhibition: 8.79%

## Cc1c(C2=CCN(C(=O)N(C)C(C)C)CC2)nnn1-c1cccnc1F
[1]
  inhibition: -7.92%
[2]
  inhibition: 9.6%
[3]
  inhibition: 9.65%
[4]
  inhibition: 26.9%
[5]
  inhibition: 1.27%
[6]
  inhibition: -0.1%
[7]
  inhibition: 7.43%
[8]
  inhibition: 2.87%
[12]
  inhibition: 8.19%
[9]
  inhibition: 64.4%
[10]
  inhibition: 85.9%
[11]
  inhibition: -6.84%

## Cc1nnn(-c2ccc(-c3ccc(C4(C(=O)O)CC4)cc3)cc2)c1NC(=O)O[C@H](C)c1ccccc1
[2]
  inhibition: -4.07%
[3]
  inhibition: 2.71%
[5]
  inhibition: 37.4%
[7]
  inhibition: 15.6%
[8]
  inhibition: 7.62%
[9]
  inhibition: -0.49%
[10]
  inhibition: 2.49%
[11]
  inhibition: 6.66%

## COC1CCN(c2cccc(-c3cc(NC(C)=O)nc(-n4nc(C)cc4C)n3)n2)CC1
[1]
  inhibition: 0.28%
[2]
  inhibition: 5.32%
[3]
  inhibition: 26.3%
[4]
  inhibition: -2.89%
[5]
  inhibition: 40.8%
[6]
  inhibition: 3.48%
[7]
  inhibition: -1.72%
[8]
  inhibition: 1.9%
[12]
  inhibition: 21.1%
[9]
  inhibition: 36.3%
[10]
  inhibition: 1.6%
[11]
  inhibition: 2.28%

## COc1ccnc(N2CCC3(CCCN(Cc4c[nH]c5ccccc45)C3=O)CC2)n1
[1]
  inhibition: 8.03%
[2]
  inhibition: -2.57%
[3]
  inhibition: 4.51%
[5]
  inhibition: 19.4%
[6]
  inhibition: 0.97%
[7]
  inhibition: -9.26%
[8]
  inhibition: 0.43%
[9]
  inhibition: 34.7%
[10]
  inhibition: 7.53%
[11]
  inhibition: 11.9%
